Consider four compounds from patent publication US9884854B2, “N-[(pyrimidinylamino)propanyl]-and N[(pyrazinylamino)proppanyl]arylcarboxamides” (Boehringer Ingelheim International GmbH, priority 2016, dated 2018).

Where only a bound is given, the exact number is not on record here.

Series [1] in a line: Assay C: metabolic stability in human liver microsomes (Human MST). It is filed as in vitro ADME. The settings on record: pooled human liver microsomes, pH 7.6, 1 μM compound, 37° C., read-out: Human MST t1/2. The source says:
Stability in human liver microsomes refers to the susceptibility of compounds to biotransformation in the context of selecting and/or designing drugs with favorable pharmacokinetic properties. The primary site of metabolism for many drugs is the liver. Human liver microsomes contain the cytochrome P450s (CYPs), and thus represent a model system for studying drug metabolization in vitro. Enhanced stability in human liver microsomes is associated with several advantages, including increased bioavailability and longer half-life, which can enable lower and less frequent dosing of patients. Thus, enhanced stability in human liver microsomes is a favorable characteristic for compounds that are to be used for drugs.
C. Assessment of Metabolic Stability in Human Liver Microsomes (Human MST)
The metabolic stability of the compounds according to the invention may be investigated as follows:
The metabolic degradation of the test compound is assayed at 37° C. with pooled human liver microsomes. The final incubation volume of 100 μL per time point contains TRIS buffer pH 7.6 at room temperature (0.1 M), MgCl2 (5 mM), microsomal protein (1 mg/mL) and the test compound at a final concentration of 1 μM. Following a short pre-incubation period at 37° C., the reactions are initiated by addition of beta-nicotinamide adenine dinucleotide phosphate, reduced form (NADPH, 1 mM), and terminated by transferring an aliquot into solvent after different time points. After centrifugation (10000 g, 5 min), an aliquot of the supernatant is assayed by LC-MS/MS for the amount of parent compound. The half-life (t1/2) is determined by the slope of the semi-logarithmic plot of the concentration-time profile.

A further series addresses T1, human Orexin 1 receptor (Homo sapiens, UniProt O43613).
T1 construct: stably expressing the full-length human Orexin 1 receptor and the aequorin photoprotein; expressed in transfected cells; host or cells: CHO-K1 (CHO-K1/hOx1), co-expressing aequorin
T1 sequence (O43613 1-425): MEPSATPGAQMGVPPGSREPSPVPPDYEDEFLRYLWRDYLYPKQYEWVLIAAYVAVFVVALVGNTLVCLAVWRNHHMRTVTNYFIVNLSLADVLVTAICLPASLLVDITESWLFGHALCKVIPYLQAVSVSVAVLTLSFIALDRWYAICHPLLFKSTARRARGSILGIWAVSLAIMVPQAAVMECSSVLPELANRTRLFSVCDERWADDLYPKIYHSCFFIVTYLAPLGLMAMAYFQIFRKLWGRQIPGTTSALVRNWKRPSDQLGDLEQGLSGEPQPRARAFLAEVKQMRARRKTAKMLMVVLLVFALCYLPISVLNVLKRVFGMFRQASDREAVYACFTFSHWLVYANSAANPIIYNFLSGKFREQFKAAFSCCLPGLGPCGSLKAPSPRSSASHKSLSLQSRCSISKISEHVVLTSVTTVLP
As to the kind of experiment: Assay A: OX1R IP1 (in vitro OX1R potency). It is filed as cell-based. The following applies: for Kb: 50 nM Orexin A concentration. The source says: Activation of the orexin receptors expressed in cell lines results in an increase in intracellular IP3 concentration. IP1, a downstream metabolite of IP3, accumulates in cells following receptor activation and is stable in the presence of LiCl. Using Homogeneous Time-Resolved Fluorescence technology with Lumi4-Tb cryptate (commercially available from Cisbio Bioassay.) and a suitable fluorescence plate reader. […] This technique is used to characterize pharmacological modification of the orexin receptors.
A. In Vitro Testing of OX1R Potency: OX1R IP1
IP1 measurements are performed in CHO-K1 cells stably expressing the full-length human Orexin 1 receptor and the aequorin photoprotein. Cells are cultivated in Ham's nutrient mixture F12 medium with 10% fetal calf serum, in a 37° C., 95% humidity and 5% CO2 incubator. The CHO-K1/hOx1 cell mass is expanded to larger cell numbers. The cells are obtained as frozen cells in cryo-vials and stored until use at −150° C. […] In preparation for the assay, 24 hours before the assay, the cells are thawed at 37° C. and immediately diluted with cell culture medium. After centrifugation, the cell pellet is re-suspended in medium and then distributed into the assay plates with a density of 10000 cells/25 μL per well. The plates are incubated for one hour at room temperature to reduce edge effects before they are incubated for 24 hours at 37° C./5% CO2. Compounds are prepared by an 8-point serial dilution in DMSO and a final dilution step into assay buffer (HBSS with 20 mM HEPES, 0.1% BSA and 50 mM LiCl, pH 7.4) to ensure a final DMSO concentration of 1% in the assay.
On the day of the assay, cells in the plate are washed twice with 60 μL assay buffer (20 μL buffer remained in the wells after washing), followed by adding 5 μL per well of compounds diluted in assay buffer. After 15 minutes of incubation at room temperature 5 μL per well of Orexin A peptide (final concentration: 0.5 nM, and/or 50 nM) dissolved in assay buffer is added to the assay plate. The assay plate is incubated for 60 minutes at 37° C. Then 5 μl per well of Anti-IP1-Cryptate Tb solution and 5 μl per well of IP1-d2 dilution are added and the plate is incubated for a further 60 minutes light protected at room temperature. […] 8-point four parametric non-linear curve fitting and determination of IC50 values and Hill slopes is performed using a regular analysis software e.g. AssayExplorer (Accelrys).
Kb values from Assay A (OX1R) and Assay B (OX2R) can then provide a selectivity ratio which is independent of the agonist (Orexin A) concentration.

As for `CCN(C(=O)c1ccccc1-n1nccn1)[C@@H](C)CNc1ncc(C(F)(F)F)cn1` [Example 1], the half-life at 1 μM in series [1] was 120 min. On human Orexin 1 receptor, the “OX2R Kb/OX1R Kb” value stood at 404 and the Kb came out at 0.048 nM.

As for `CCN(C(=O)c1nc(C)ccc1-n1nccn1)[C@@H](C)CNc1ncc(C(F)(F)F)cn1` [Example 9], the half-life at 1 μM in series [1] is 100 min. Further, on human Orexin 1 receptor, the “OX2R Kb/OX1R Kb” value is reported as 310 and the Kb came out at 0.106 nM. This compound also came in with a higher potency on human Orexin 1 receptor (versus Example 46 in WO2016/034882) above 10 fold. In addition, the higher potency entry at human Orexin 1 receptor (versus Example 73 in WO2016/034882) was “approximately 3 fold”.

As for `CCN(C(=O)c1cnc(C)nc1-c1ccccc1)[C@@H](C)CNc1ncc(C(F)(F)F)cn1` [Example 17], the half-life at 1 μM in series [1] was above 120 min. At human Orexin 1 receptor, the “OX2R Kb/OX1R Kb” value is listed as 2500 and the Kb is 0.0216 nM.

Regarding `CCN(C(=O)c1cccc(F)c1-n1nccn1)[C@@H](C)CNc1ncc(C(F)(F)F)cn1` [Example 18], the half-life at 1 μM in series [1] is above 120 min. For the same compound, on human Orexin 1 receptor, the “OX2R Kb/OX1R Kb” value turned out to be 352 and the Kb turned out to be 0.0512 nM.
